Several values for one entry are separate records, joined by “and”; a condition that tells them apart may be missing. Equal entries are not always repeated.
What was measured:
Type in all cases: biochemical
[1] = biological target: T1, recombinant 15-LOX enzyme (Homo sapiens, UniProt P16050); assay: 15-LOX fluorescent assay; conditions: several values in one cell = repeat determinations; read-out: IC50 (μM) values for in vitro lipoxygenase inhibition, 15-LOX
T1 sequence (P16050 1-662): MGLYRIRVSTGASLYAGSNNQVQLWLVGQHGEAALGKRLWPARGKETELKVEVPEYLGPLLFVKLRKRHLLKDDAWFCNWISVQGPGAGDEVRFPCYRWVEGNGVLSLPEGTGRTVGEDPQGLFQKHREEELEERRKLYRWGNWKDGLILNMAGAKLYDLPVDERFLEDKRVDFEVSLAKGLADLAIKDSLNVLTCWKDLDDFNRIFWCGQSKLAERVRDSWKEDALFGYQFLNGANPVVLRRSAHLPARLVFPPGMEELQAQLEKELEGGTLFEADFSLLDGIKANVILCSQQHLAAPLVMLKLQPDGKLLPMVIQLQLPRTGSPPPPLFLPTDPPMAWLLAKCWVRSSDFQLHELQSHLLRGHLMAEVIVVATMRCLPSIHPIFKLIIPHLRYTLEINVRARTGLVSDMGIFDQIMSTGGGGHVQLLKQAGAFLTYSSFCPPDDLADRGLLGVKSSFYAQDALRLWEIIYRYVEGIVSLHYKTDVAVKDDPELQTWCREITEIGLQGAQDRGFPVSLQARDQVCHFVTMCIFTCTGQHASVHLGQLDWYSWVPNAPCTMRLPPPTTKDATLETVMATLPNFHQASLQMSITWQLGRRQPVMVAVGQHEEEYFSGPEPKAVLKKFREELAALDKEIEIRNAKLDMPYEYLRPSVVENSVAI
Outline: (§1)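 Compounds pre-incubated 15 min with 100 nM 12-LOX or 50 nM 15-LOX in 50 mM Tris pH 7.5, 0.05% Tween-20; reaction started with 20 μM AA/LA plus 1 μM DHR123.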

[2] = biological target: T2, recombinant 5-LOX (Homo sapiens, UniProt P09917); assay: 5-LOX fluorescent assay; conditions: several values in one cell = repeat determinations; read-out: IC50 (μM) values for in vitro lipoxygenase inhibition, 5-LOX
T2 sequence (P09917 1-674): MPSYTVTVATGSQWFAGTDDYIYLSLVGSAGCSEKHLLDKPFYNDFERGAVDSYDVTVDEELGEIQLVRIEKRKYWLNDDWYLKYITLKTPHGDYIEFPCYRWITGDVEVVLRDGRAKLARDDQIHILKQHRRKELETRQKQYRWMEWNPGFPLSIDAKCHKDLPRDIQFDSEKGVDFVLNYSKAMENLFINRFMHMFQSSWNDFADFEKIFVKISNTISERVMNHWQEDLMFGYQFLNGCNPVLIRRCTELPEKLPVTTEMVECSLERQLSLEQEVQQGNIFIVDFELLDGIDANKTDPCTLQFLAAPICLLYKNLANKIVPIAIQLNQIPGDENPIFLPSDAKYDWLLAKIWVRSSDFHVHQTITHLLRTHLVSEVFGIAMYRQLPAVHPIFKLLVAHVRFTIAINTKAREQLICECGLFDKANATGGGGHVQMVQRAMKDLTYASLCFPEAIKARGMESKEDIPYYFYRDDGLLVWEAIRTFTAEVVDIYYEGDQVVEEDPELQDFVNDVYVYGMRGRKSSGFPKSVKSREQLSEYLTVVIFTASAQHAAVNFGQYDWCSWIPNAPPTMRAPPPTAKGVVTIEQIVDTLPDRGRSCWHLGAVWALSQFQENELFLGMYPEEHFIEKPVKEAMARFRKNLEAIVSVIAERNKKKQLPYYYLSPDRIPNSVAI
Outline: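 Lysate containing recombinant 5-LOX was pre-incubated 15 min with compounds in 50 mM Tris pH 7.5, 0.1 mM EDTA, 0.3 mM CaCl2. The reaction was started with 20 μM arachidonic acid, 100 μM ATP and 1 μM DHR123.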

[3] = biological target: T3, recombinant 12-LOX enzyme (Homo sapiens, UniProt P18054); assay: 12-LOX fluorescent assay; conditions: several values in one cell = repeat determinations; read-out: IC50 (μM) values for in vitro lipoxygenase inhibition, 12-LOX
T3 sequence (P18054 1-663): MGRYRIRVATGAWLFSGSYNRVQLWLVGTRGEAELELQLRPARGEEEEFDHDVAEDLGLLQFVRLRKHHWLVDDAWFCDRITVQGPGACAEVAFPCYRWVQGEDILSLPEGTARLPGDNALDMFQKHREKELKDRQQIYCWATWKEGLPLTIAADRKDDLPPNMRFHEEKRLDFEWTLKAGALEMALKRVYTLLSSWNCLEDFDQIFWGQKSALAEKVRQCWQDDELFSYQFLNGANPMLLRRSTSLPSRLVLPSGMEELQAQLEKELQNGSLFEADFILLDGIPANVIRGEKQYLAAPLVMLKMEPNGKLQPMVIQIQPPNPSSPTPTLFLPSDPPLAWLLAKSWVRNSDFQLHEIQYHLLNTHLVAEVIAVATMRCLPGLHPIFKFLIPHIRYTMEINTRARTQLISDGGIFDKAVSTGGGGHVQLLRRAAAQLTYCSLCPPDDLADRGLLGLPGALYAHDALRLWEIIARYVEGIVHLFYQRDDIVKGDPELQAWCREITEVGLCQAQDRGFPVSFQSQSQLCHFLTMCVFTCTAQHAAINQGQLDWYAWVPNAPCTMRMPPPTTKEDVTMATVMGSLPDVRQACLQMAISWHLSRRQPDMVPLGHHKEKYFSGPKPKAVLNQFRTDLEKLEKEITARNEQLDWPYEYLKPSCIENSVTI
Outline: as §1

Compound	IC50 [1]	IC50 [2]	IC50 [3]
Fc1ccc2[nH]c3cc4c(c(F)c3c2c1)CCN4CCn1cncn1 [SS20308-0207-01, 1-(2-(1H-1,2,4-triazol-1-yl)ethyl)-4,6-difluoro-1,2,3,9-tetrahydropyrrolo[2,3-b]carbazole]	1.15 µM	0.59 µM	0.1 µM
Fc1ccc2[nH]c3cc4c(cc3c2c1)CCN4CCn1cncn1 [SS20308-0208-01, 1-(2-(1H-1,2,4-triazol-1-yl)ethyl)-6-fluoro-1,2,3,9-tetrahydropyrrolo[2,3-b]carbazole]	0.18 µM	0.2 µM	0.01 µM
CC1(C)CN(CCn2cncn2)c2cc3[nH]c4ccccc4c3cc21 [SS20308-0209-01, 1-(2-(1H-1,2,4-triazol-1-yl)ethyl)-3,3-dimethyl-1,2,3,9-tetrahydropyrrolo[2,3-b] carbazole]	1.12 µM	0.92 µM	0.03 µM
CN(C)C(=O)CC(c1ccccc1)c1ccc2[nH]c3ccccc3c2c1 (stereo not drawn) [SS20308-0222-01, 3-(9H-carbazol-3-yl)-N,N-dimethyl-3-phenylpropanamide]	4.53 µM	10.9 µM	14 µM
c1ccc2c(c1)CCc1ccc(NCCn3cncn3)cc1N2 [SS20308-0224-01, N-(2-(1H-1,2,4-triazol-1-yl)ethyl)-10,11-dihydro-5H-dibenzo[b,f]azepin-3-amine]	1.12 µM	0.22 µM	0.11 µM
Cc1cc2[nH]c3ccc(F)cc3c2cc1NCC1(Cn2cncn2)COC1 [SS20308-0233-01, N-((3-((1H-1,2,4-triazol-1-yl)methyl)oxetan-3-yl)methyl)-6-fluoro-2-methyl-9H-carbazol-3-amine]	0.2 µM	0.19 µM	0.03 µM
Fc1cccc2c1[nH]c1cc3c(cc12)CCN3CCn1cncn1 [SS20308-0243-01, 1-(2-(1H-1,2,4-triazol-1-yl)ethyl)-8-fluoro-1,2,3,9-tetrahydropyrrolo[2,3-b]car bazole]	1.13 µM	0.2 µM	0.03 µM
Clc1cc2c(cc1NCCn1cncn1)Nc1ccccc1CC2 [SS20308-0251-01, N-(2-(1H-1,2,4-triazol-1-yl)ethyl)-2-chloro-10,11-dihydro-5H-dibenzo[b,f]azepin-3-amine]	0.75 µM and 0.73 µM	0.45 µM and 0.56 µM	0.05 µM and 0.22 µM
CN(C)CCc1cc(Nc2cccc(Cl)c2)cc2c1[nH]c1ccccc12 [SS20308-0258-01, N-(3-chlorophenyl)-1-(2-(dimethylamino)ethyl)-9H-carbazol-3-amine]	0.09 µM and 0.55 µM	0.06 µM and 0.08 µM	0.16 µM
c1ccc2c(c1)CCc1cc(C3CC3)c(NCCn3cncn3)cc1N2 [SS20308-0269-01, N-(2-(1H-1,2,4-triazol-1-yl)ethyl)-2-cyclopropyl-10,11-dihydro-5H-dibenzo[b,f]azepin-3-amine]	0.55 µM	0.55 µM	0.11 µM
CN(C)CCCNc1ccc2c(c1)Nc1ccccc1CC2 [SS20308-0270-01, N^1-(10,11-dihydro-5H-dibenzo[b,f]azepin-3-yl)-N^3,N^3-dimethylpropane-1,3-diamine]	1.08 µM and 0.9 µM	0.15 µM	0.1 µM
c1ccc2c(c1)CCc1cc(C3CCCCC3)c(NCCn3cncn3)cc1N2 [SS20308-0271-01, N-(2-(1H-1,2,4-triazol-1-yl)ethyl)-2-cyclohexyl-10,11-dihydro-5H-dibenzo[b,f]azepin-3-amine]	0.28 µM and 0.32 µM	0.15 µM and 0.17 µM	0.11 µM and 0.12 µM
Clc1c(NCCn2cncn2)ccc2c1Nc1ccccc1CC2 [SS20308-0273-01, N-(2-(1H-1,2,4-triazol-1-yl)ethyl)-4-chloro-10,11-dihydro-5H-dibenzo [b,f]azepin-3-amine]	9.82 µM	5.6 µM	2.66 µM
c1ccc2c(c1)CCc1cc(NCCn3cncn3)ccc1N2 [SS20308-0276-01, N-(2-(1H-1,2,4-triazol-1-yl)ethyl)-10,11-dihydro-5H-dibenzo[b,f]azepin-2-amine]	0.28 µM and 0.1 µM	0.13 µM and 0.06 µM	0.03 µM and 0.02 µM
CN(C)CCc1cc(Nc2ccc(F)cc2Cl)cc2c1[nH]c1ccccc12 [SS20308-0277-01, N-(2-chloro-4-fluorophenyl)-1-(2-(dimethylamino)ethyl)-9H-carbazol-3-amine]	0.57 µM	0.32 µM	0.04 µM
CN(C)CCc1cc(Nc2cccnc2)cc2c1[nH]c1ccccc12 [SS20308-0291-01, 1-(2-(dimethylamino)ethyl)-N-(pyridin-3-yl)-9H-carbazol-3-amine]	0.02 µM and 0.16 µM	0.06 µM and 0.12 µM	0.05 µM and 0.06 µM
Fc1ccc2[nH]c3cc(C(F)(F)F)c(NCC4(Cn5cncn5)COC4)cc3c2c1 [SS20308-0295-01, N-((3-((1H-1,2,4-triazol-1-yl)methyl)oxetan-3-yl)methyl)-6-fluoro-2-(trifluoromethyl)-9H-carbazol-3-amine]	0.49 µM	0.66 µM	0.22 µM
c1ccc2c(c1)CCc1ccc(NCCCN3CCOCC3)cc1N2 [SS20308-0303-01, N-(3-morpholinopropyl)-10,11-dihydro-5H-dibenzo[b,f]azepin-3-amine]	0.9 µM	0.12 µM	0.09 µM
Fc1cc2[nH]c3ccccc3c2cc1NCC1(Cn2cncn2)COC1 [SS20308-0304-01, N-((3-((1H-1,2,4-triazol-1-yl)methyl)oxetan-3-yl)methyl)-2-fluoro-9H-carbazol-3-amine]	0.4 µM	0.2 µM	0.09 µM
c1ccc2c(c1)CCc1cc(C3CCOCC3)c(NCCn3cncn3)cc1N2 [SS20308-0305-01, N-(2-(1H-1,2,4-triazol-1-yl)ethyl)-2-(tetrahydro-2H-pyran-4-yl)-10,11-dihydro-5H-dibenzo[b,f]azepin-3-amine]	0.58 µM	0.2 µM	0.14 µM
Fc1c(NCC2(Cn3cncn3)COC2)ccc2[nH]c3ccccc3c12 [SS20308-0312-01, N-((3-((1H-1,2,4-triazol-1-yl)methyl)oxetan-3-yl)methyl)-4-fluoro-9H-carbazol-3-amine]	0.15 µM	0.09 µM	0.03 µM

From US20230174485A1, “LIPOXYGENASE INHIBITORS” (SRI International, priority 2020, published 2023)
